Results on 1 compound are retold here after US20210161855A1, “5-LIPOXYGENASE ANTAGONISTS” (INSTITUTO DE MEDICINA MOLECULAR JOÃO LOBO ANTUNES, priority 2017, published 2021).

Data set [1] concerns the target EP2 (Homo sapiens, UniProt P43116). Briefly: Prostanoid EP2 receptor antagonism, functional assay. It counts as cell-based. To be noted: 150 μM.
The nature of data set [2]: Dynamic light scattering, colloidal aggregation. The data set is classed as physicochemical. To be noted: relevant concentrations. The protocol: Dynamic light scattering (Zetasizer Nano S, Malvern, UK) was used to determine compound colloidal aggregation potential and kinetic solubility. The particle sizes were measured at 25° C. […] Colloidal aggregation was measured through sequential dilutions. Solubility was assessed at 25 μM after 0 and 30 minutes.

Data set [3] concerns the target T1, 12-LO (Homo sapiens, UniProt P18054).
T1 construct: endogenous in cells; host or cells: human blood neutrophil preparation
T1 sequence (P18054 1-663): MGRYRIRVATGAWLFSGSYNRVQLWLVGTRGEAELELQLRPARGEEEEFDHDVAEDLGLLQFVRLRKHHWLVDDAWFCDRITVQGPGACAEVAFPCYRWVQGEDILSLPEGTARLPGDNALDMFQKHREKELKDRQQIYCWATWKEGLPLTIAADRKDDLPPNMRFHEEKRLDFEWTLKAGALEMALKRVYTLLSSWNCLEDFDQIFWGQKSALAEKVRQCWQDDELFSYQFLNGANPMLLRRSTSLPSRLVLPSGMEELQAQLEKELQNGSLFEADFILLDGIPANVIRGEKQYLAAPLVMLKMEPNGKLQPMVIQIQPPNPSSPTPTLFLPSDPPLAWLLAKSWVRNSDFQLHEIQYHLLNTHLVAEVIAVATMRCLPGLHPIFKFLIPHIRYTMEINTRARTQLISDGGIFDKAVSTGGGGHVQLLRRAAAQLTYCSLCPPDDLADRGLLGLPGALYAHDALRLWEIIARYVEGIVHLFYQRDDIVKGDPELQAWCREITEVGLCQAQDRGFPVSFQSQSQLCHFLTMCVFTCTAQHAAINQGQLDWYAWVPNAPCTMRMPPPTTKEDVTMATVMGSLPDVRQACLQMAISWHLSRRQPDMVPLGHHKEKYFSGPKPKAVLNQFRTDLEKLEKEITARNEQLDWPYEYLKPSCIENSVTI
Briefly: 12-LO inhibition in intact human neutrophils. The data set is classed as cell-based. To be noted: without DTT. As for the experimental part: Peripheral blood (University Hospital Jena, Germany) was withdrawn from healthy adult volunteers with consent that had not taken any anti-inflammatory drugs during the last 10 days, by venipuncture in heparinized tubes (16 IE heparin/mL blood). The blood was centrifuged at 4000 g for 20 min at 20° C. for preparation of leukocyte concentrates. Leukocyte concentrates were then subjected to dextran sedimentation and centrifugation on lymphocyte separation medium (LSM 1077, PAA, Colbe, Germany). Contaminating erythrocytes of pelleted neutrophils were removed by hypotonic Iysis. […] Method B. […] Cysteinyl-LTs C4, D4 and E4 were not detected (amounts were below detection limit), and oxidation products of LTB4 were not determined.

The target of data set [4] is T2, 5-LO (Homo sapiens, UniProt P09917).
T2 sequence (P09917 1-674): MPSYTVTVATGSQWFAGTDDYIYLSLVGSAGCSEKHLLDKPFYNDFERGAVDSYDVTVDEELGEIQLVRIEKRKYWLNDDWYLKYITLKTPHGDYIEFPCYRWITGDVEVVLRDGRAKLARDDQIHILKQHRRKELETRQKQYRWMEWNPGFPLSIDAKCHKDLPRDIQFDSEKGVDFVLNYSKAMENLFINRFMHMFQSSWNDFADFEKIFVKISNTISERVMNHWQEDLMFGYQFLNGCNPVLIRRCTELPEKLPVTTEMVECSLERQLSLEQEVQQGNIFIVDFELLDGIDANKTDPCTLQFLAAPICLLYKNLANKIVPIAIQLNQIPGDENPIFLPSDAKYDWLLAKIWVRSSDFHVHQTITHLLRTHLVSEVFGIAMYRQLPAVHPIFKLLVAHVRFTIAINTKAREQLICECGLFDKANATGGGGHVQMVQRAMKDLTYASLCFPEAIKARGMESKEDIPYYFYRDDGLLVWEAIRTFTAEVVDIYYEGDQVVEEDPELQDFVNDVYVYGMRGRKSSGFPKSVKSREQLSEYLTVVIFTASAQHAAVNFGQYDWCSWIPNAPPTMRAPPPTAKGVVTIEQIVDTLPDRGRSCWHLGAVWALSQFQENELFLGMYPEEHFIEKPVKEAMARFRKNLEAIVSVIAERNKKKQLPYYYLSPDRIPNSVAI
Briefly: Cell-free activity assay of human recombinant 5-LO. It counts as biochemical. Also noted: made in house; host or cells: E. coli (BL21), plasmid pT3-5-LO. As for the experimental part: E. coli(BL21) was transformed with pT3-5-LO plasmid, and recombinant 5-LO protein was expressed at 30° C. as described.^34 Cells were lysed in 50 mM triethanolamine/HCl pH 8.0, 5 mM EDTA, 1 mM phenylmethanesulphonyl fluoride, soybean trypsin inhibitor (60 μg/mL), and lysozyme (1 mg/mL), homogenized by sonication (3×15 s), and centrifuged at 40,000×g for 20 min at 4° C. The 40,000×g supernatant (S40) was applied to an ATP-agarose column to partially purify 5-LO as described.^70 Aliquots of semi-purified 5-LO (0.5 μg) were diluted with 1 mL ice-cold PBS containing 1 mM EDTA. Samples were pre-incubated with the test compound or vehicle (0.1% DMSO) with or without Triton X-100 and/or 1 mM DTT, as indicated. After 10 min at 4° C., samples were pre-warmed for 30 s at 37° C., and 2 mM CaCl2 plus the indicated concentrations of arachidonic acid (AA) were added to start the formation of 5-LO products. After 10 min, the reaction was stopped by addition of one volume of ice-cold methanol, and the formed 5-LO products were analyzed by RP-HPLC as described.^71 5-LO products include the all-trans isomers of LTB4 (tr-LTB4 isomers) as well as 5(S)-hydroperoxy-6-trans-8,11,14-cis-eicosatetraenoic acid (5-HPETE) and its corresponding alcohol 5(S)-hydroxy-6-trans-8,11,14-cis-eicosatetraenoic acid (5-HETE). For phosphatidylcholine competition assays (3 or 30 μg/ml PC) samples were pre-incubated on ice with β-lapachone with or without 1 mM DDT or vehicle (0.1% DMSO) for 10 minutes. After addition of 2 mM CaCl2) and 20 μM AA the incubation was continued for 10 minutes at 37° C. and after that stopped with methanol.
Data are expressed as mean±S.E.M. IC50 values were calculated from averaged measurements at 6 different concentrations of the compound by nonlinear regression using GraphPad Prism software (San Diego, Calif.) one site binding competition. Statistical evaluation of the data was performed by one-way ANOVA followed by a Tukey-Kramer post-hoc test for multiple comparisons respectively. A p value<0.05 (*) was considered significant.

pIC50: −log10 of the molar value. Like-named read-outs stand apart in the source and are kept apart here.

EP2, sequence (P43116 whole entry): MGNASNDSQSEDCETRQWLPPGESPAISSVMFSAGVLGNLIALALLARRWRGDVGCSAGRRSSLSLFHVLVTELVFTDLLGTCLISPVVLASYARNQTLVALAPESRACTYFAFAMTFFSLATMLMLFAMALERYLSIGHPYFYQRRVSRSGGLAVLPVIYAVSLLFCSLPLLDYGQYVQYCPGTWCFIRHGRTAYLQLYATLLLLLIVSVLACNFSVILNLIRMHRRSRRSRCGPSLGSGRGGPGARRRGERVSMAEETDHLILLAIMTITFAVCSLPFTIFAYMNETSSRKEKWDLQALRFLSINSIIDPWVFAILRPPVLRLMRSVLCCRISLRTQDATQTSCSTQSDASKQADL

As to `CC1(C)CCC2=C(O1)c1ccccc1C(=O)C2=O` [Compound 1, 3,4-dihydro-2,2-dimethyl-2H-naphtho[1,2-b]pyran-5,6-dione], the EP2 antagonist effect in data set [1] turned out to be 60%. Besides, the Colloidal aggregation result in data set [2] is recorded as “no colloidal aggregation”. The pIC50 in data set [3] was under 4.52; in data set [4] (3 μg/mL phosphatidylcholine, n=3, read-out: IC50 (3 μg/mL, PC), competition assay with phosphatidylcholine) it was 7.00; in data set [4] (30 μg/mL phosphatidylcholine, n=3, read-out: IC50 (30 μg/mL, PC), competition assay with phosphatidylcholine) it was 6.00; in data set [4] (1 mM DTT, 0.01% Triton X100, n=3, read-out: IC50 (with Triton X100), inhibition of 5-LO) it was 7.05; in data set [4] (1 mM DTT, no Triton X100, n=3, read-out: IC50 (without Triton X100), inhibition of 5-LO), 6.92; in data set [4] (1 mM dithiothreitol (DTT), n=3, read-out: IC50 (with DTT), inhibition of 5-LO in a cell-free assay), 6.62. Moreover, in data set [4] (absence of DTT, n=3, read-out: IC50 (without DTT), inhibition of 5-LO in a cell-free assay), the pIC50 is under 4.52. Moreover, the “Effect of arachidonic acid concentration on potency” value in data set [4] (arachidonic acid 2.5-40 μM) is reported as “only to minor alterations of the potency”. For the same compound, in data set [4] (cell-free, no DTT, up to 30 μM), the “5-LO modulation in absence of dithiothreitol” value is “negligible 5-LO modulation”. For the same compound, in data set [4] (wash-out of compound), the “5-LO activity after wash-out” value is given as “could be reinstated upon wash-out”.
